From PMC5244392, “Interspecies cathelicidin comparison reveals divergence in antimicrobial activity, TLR modulation, chemokine induction and regulation of phagocytosis” (Scientific Reports, 2017)

Key:
E. coli O78 = experiment: Bacterial growth delay (Bioscreen C), E. coli; format: cell-based, Escherichia coli; settings: for Max: hours growth delay with 20 μM cathelicidin, E. coli, DMEM / Summary class, antimicrobial activity E. coli DMEM / Delay of the growth of E. coli: DMEM + FCS; for Max: hours growth delay with 20 μM cathelicidin, E. coli, DMEM / Max: hours growth delay with 20 μM cathelicidin, E. coli, MHB: 20 μM peptide, given if no Cmax was reached; for Max: hours growth delay with 20 μM cathelicidin, E. coli, DMEM / Cmax: cathelicidin concentration resulting in a delay in bacterial growth with minimal 10 hours, E. coli, MHB / Cmax, E. coli, DMEM / Max: hours growth delay with 20 μM cathelicidin, E. coli, MHB: N = 4; for Summary class, antimicrobial activity E. coli DMEM / Summary class, antimicrobial activity E. coli MHB: − is not defined in the key; for Cmax: cathelicidin concentration resulting in a delay in bacterial growth with minimal 10 hours, E. coli, MHB / Cmax, E. coli, DMEM: 1 × 10^6 CFU/ml, peptide 0.31-20 μM, 16 h, 37 °C, — = no Cmax reached up to 20 μM; for Cmax: cathelicidin concentration resulting in a delay in bacterial growth with minimal 10 hours, E. coli, MHB: 200 RPM; for Cmax: cathelicidin concentration resulting in a delay in bacterial growth with minimal 10 hours, E. coli, MHB / Max: hours growth delay with 20 μM cathelicidin, E. coli, MHB: time to OD 0.6 vs control; for Cmax, E. coli, DMEM: DMEM + FCS (10%); for Delay of the growth of E. coli: peptide concentration not given (0.31-20 μM tested)
Experimental: E. coli O78 (Zoetis Animal Health, Kalamazoo, MI, USA), E. coli ATCC 25922, Staphylococcus aureus ATCC 29213, and methicillin resistant Staphylococcus aureus (MRSA) (WKZ-2, human clinical isolate) were grown overnight from a glycerol stock in Mueller Hinton Broth (MHB) (Becton Dickinson, USA). Before use, bacteria were grown to mid-log phase in MHB for 2 hours at 37 °C, 200 RPM. Murine RAW264.7 macrophages (ATCC-TIB-71) were obtained from the American Type Culture Collection (ATCC, Manassas, VA, USA) and cultured in DMEM (41966-029; Thermo Fisher Scientific, Waltham, MA, USA) supplemented with 10% FCS (Bodinco B.V., Alkmaar, the Netherlands) (DMEM + FCS) at 37 °C, 5.0% CO2. Cells were seeded in 96-wells plates at 5 × 10^5 cells/ml or 12-wells plates at 2 × 10^5/ml for adherence overnight prior to stimulation.
Peptides (0.63 to 40 μM) and bacteria mid-log cultures (2 * 10^6 CFU/ml) were prepared in MHB or DMEM + FCS and mixed (100 μl peptide + 100 μl bacterial culture) in a Bioscreen C analyzer plate (Oy Growth Curves Ab Ltd, Helsingfors, Finland). Plates were placed in a Bioscreen C analyzer (Oy Growth Curves Ab Ltd) and bacteria were grown for 16 h at 37 °C with 200 RPM. The OD was measured every 15 minutes using a wideband filter (450–580 nm) to measure bacterial growth. The time needed grow above an OD of 0.6 was determined for all concentrations. Activity of peptides was expressed as the Cmax, the concentration of peptide required to delay the growth for 10 h compared to the control. Or, for peptides with low activity (no Cmax), activity was expressed as the hours of growth delay at 20 μM. Unlike the classic MIC and MBC determination used in microbiology, this method also enabled comparison of peptides with low antibacterial activity.
Twelve cathelicidins from 6 different species were selected for this study, namely: human LL-37, murine CRAMP, dog K9CATH, equine CATH (eCATH)-1, -2 and -3, chicken CATH (chCATH)-1, -2, and -3, porcine PMAP-23 and -36 and PR-39 (Table 1). Antimicrobial activity against E. coli and MRSA was directly compared under standardized conditions in MHB, a medium optimized for bacterial growth. Bacterial growth delay was defined as the delay in hours for peptide-treated bacteria to reach an OD of 0.6, compared to the non-treated control. Cmax is the minimal concentration needed to delay growth for a minimum of 10 hours compared to the non-treated control (Table 1 and Fig. 1A).
Figure 1 Antibacterial activity of cathelicidins. E. coli and MRSA (1 × 10^6 CFU/ml) of were grown in MHB or DMEM ± FCS for 16 hours under constant shaking (200 RPM). Every 15 minutes the OD was measured. Growth delay was defined as the time needed for peptide-treated bacteria to grow above an OD of 0.6 compared to the control bacteria (no peptide added) (A). Cathelicidins were tested in different concentrations (0.31 μM, 0.63 μM, 1.25 μM, 2.5 μM, 5 μM, 10 μM, and 20 μM) to determine the antimicrobial activity in MHB against E. coli (B) or MRSA (C) and in more physiological medium DMEM + FCS (D,E). Results are presented as average +/− SEM (N = 4).

[1] = test system: LPS-induced TLR-4 activation of RAW264.7 cells; experiment: LPS neutralization: LPS-induced TNFα release; format: cell-based, murine; settings: peptide 0.08-20 μM; for Summary class, TLR activation LPS: 100 ng/ml LPS E. coli O111:B4, TNFα after 2 h, − = no significant effect, N = 3; for LPS neutralization / inhibition of LPS-induced activation, in words: 100 ng/ml LPS, 2 h, TNFα
Source text: TLR ligands: LPS Escherichia coli (E. coli) O111:B4 (TLR-4), LTA S. aureus (TLR-2), and ODN-1826 (TLR-9) were obtained from Invivogen (Toulouse, France). Chicken CATH-2 (chCATH-2) and PMAP-36 were synthesized by Fmoc-chemistry at China Peptides (CPC scientific, Sunnycale, CA) and all other cathelicidins were synthesized by Fmoc-chemistry at the Academic Centre for Dentistry Amsterdam (Amsterdam, The Netherlands) (Table 1). Purity of all peptides was >95% as analyzed by HPLC-MS.
RAW264.7 cells were stimulated with 100 ng/ml LPS E. coli O111:B4, 1 μg/ml LTA S. aureus or 2.5 nM ODN-1826 in the presence of various concentrations of different cathelicidins. TNFα release was determined after 2 h for LPS and LTA stimulation and 24 h for ODN-1826 stimulation. CXCL10, CCL5 and IL-10 release were all determined after 24 h stimulation. As a control, RAW264.7 cells were stimulated for 2 h with 10^6 CFU/ml live or heat-killed (70 °C, 0.5 h) E. coli O78, followed by a double wash with cell culture medium and subsequent 22 h incubation in cell culture medium supplemented with 250 μg/ml gentamicin.
ELISA Duoset kits for mouse TNFα, CCL5, CXCL10 and IL-10 were obtained from R&D systems (Minneapolis, MN, USA) and ELISAs were performed according to the manufacturer’s protocol. Samples were stored at −20 °C until analysis and, if needed, diluted in 1% BSA in PBS, pH 7.4. Absorbance at 450 nm was determined in a FLUOstar Omega microplate reader (BMG Labtech GmbH) and corrected for absorbance at 570 nm. Results were analyzed with MARS data analysis software (BMG Labtech GmbH).
RAW264.7 cells were stimulated for 2 h with 100 ng/ml LPS from E. coli O111:B4 in the presence of different cathelicidins at various concentrations to study the capability of LPS neutralization (Fig. 3A). […] Next, RAW264.7 cells were stimulated with 1 μg/ml S. aureus LTA for 2 h in the presence of various cathelicidin concentrations, to test LTA neutralization (Fig. 3B).
Figure 3 Effects of cathelicidins on TLR-2, -4, and -9 activation. LPS (100 ng/ml) (A), LTA (1 μg/ml) (B) or ODN-1826 (2.5 nM) (C) was mixed with different cathelicidins (0.08 μM, 0.31 μM, 1.25 μM, 5 μM, and 20 μM) before addition to the RAW264.7 cells. Supernatants were collected after 2 hours (A,B) or 24 hours (C) incubation and TNFα expression was measured. The dotted line represents the average cytokine release of control samples. Results are presented as average +/− SEM (N = 3). Statistical differences were determined by Two-way ANOVA with Bonferroni post-hoc test.

Row | Substance | Max: hours growth delay with 20 μM cathelicidin, E. coli, DMEM (E. coli O78) [h] | Summary class, antimicrobial activity E. coli DMEM (E. coli O78) | Cmax: cathelicidin concentration resulting in a delay in bacterial growth with minimal 10 hours, E. coli, MHB (E. coli O78; MHB) [µM] | Summary class, antimicrobial activity E. coli MHB (E. coli O78; MHB) | Summary class, TLR activation LPS [1] | LPS neutralization / inhibition of LPS-induced activation, in words [1] | Cmax, E. coli, DMEM (E. coli O78) [µM] | Delay of the growth of E. coli (E. coli O78) | Max: hours growth delay with 20 μM cathelicidin, E. coli, MHB (E. coli O78; MHB) [h] | Activity against E. coli in MHB, in words (E. coli O78; MHB, peptide up to 20 μM)
1 | RVKRFWPLVPVAINTVAAGINLYKAIRRK [chCATH-3, chicken CATH-3, 29 residues, charge +7] | 5.5 | + (+ = >4 hours inhibition at 20 μM) | 20 | +++ (+++ = Cmax at ≤20 μM) | ↓↓ (↓↓ = significant decrease ≤5 μM) | significantly inhibited |  |  |  | 
2 | Ac-GRFRRLRKKTRKRLKKIGKVLKWIPPIVGSIPLGCG [PMAP-36, porcine α-helical cathelicidin, N-acetylated, 36 residues, charge +13] |  | +++ (+++ = Cmax at ≤20 μM) | 5 | +++ (+++ = Cmax at ≤20 μM) | ↓↓ (↓↓ = significant decrease ≤5 μM) |  | 2.5 | at least 7 hours |  | 
3 | GLLRKGGEKIGEKLKKIGQKIKNFFQKLVPQPEQ [CRAMP, murine cathelicidin, 34 residues, charge +6] | 2.5 |  |  | ++ (++ = >8 hours inhibition at 20 μM) | ↓↓ (↓↓ = significant decrease ≤5 μM) |  |  |  | 9.0 | 
4 | RIIDLLWRVRRPQKPKFVTVWVR [PMAP-23, porcine α-helical cathelicidin, 23 residues, charge +6] | 3.5 |  |  | ++ (++ = >8 hours inhibition at 20 μM) |  | None of the equine cathelicidins nor PMAP-23 and PR-39 were capable to neutralize LPS |  |  | 9.5 | 
5 | RFGRFLRKIRRFRPKVTITIQGSARF-NH2 [chCATH-2, chicken CATH-2, C-terminal amide, 26 residues, charge +9] |  | +++ (+++ = Cmax at ≤20 μM) | 5 | +++ (+++ = Cmax at ≤20 μM) | ↓↓ (↓↓ = significant decrease ≤5 μM) | potently inhibited | 10 | at least 7 hours |  | 
6 | RRRPRPPYLPRPRPPPFFPPRLPPRIPPGFPPRFPPRFP [PR-39, porcine proline-rich cathelicidin forming a polyproline helix, 39 residues, charge +10] | 7.0 | + (+ = >4 hours inhibition at 20 μM) | 20 | +++ (+++ = Cmax at ≤20 μM) |  | None of the equine cathelicidins nor PMAP-23 and PR-39 were capable to neutralize LPS |  | at least 7 hours |  | 
7 | RLKELITTGGQKIGEKIRRIGQRIKDFFKNLQPREEKS [Peptide K9CATH, dog cathelicidin, 38 residues, charge +6] | 1.5 |  |  |  | ↓↓ (↓↓ = significant decrease ≤5 μM) | significantly inhibited |  |  | 3.0 | no or very little activity
8 | KRRHWFPLSFQEFLEQLRRFRDQLPFP [eCATH-2, equine CATH-2, 27 residues, charge +4] | 2.0 |  |  | ++ (++ = >8 hours inhibition at 20 μM) |  |  |  |  | 9.0 | 
